# Earlier results as cited in patent US20020054924A1, “Novel compositions derived from cranberry and grapefruit and therapeutic uses therefor” (priority 2000, published 2002).
# System: cholesterol
# Details: chickens
substance,measurement,value
tocotrienol [Extract T3],hypocholesterolemic effect compared with Lovastatin,twice as effective as Lovastatin™
